Measured values taken from patent US20080234363A1, “Antitumoral Compounds” (PHARMA MAR, S.A., priority 2005, published 2008).

How the values were obtained:
MDA-MB-231 = experiment: SRB antitumor screening, MDA-MB-231; format: cell-based, human; conditions: Breast MDA-MB-231, SRB, 48 hours exposure; for GI50: Homo sapiens
Excerpt: (§1) The finality of these assays was to interrupt the growth of a “in vitro” tumor cell culture by means of a continued exhibition of the cells to the sample to be testing.
(§2) A colorimetric type of assay, using sulforhodamine B (SRB) reaction has been adapted for a quantitative measurement of cell growth and viability [following the technique described by Philip Skehan et al. (1990), New colorimetric cytotoxicity assay for anticancer drug screening, J. Natl. Cancer Inst., 82:1107-1112].
(§3) This form of assay employed 96 well cell culture microplates of 9 mm diameter (Faircloth et al. Methods in cell science, (1988), 11(4), 201-205; Mosmann, Journal of. Immunological Methods (1983), 65(1-2), 55-63. Most of the cell lines were obtained from American Type Culture Collection (ATCC) derived from different human cancer types.
(§4) Cells were maintained in RPMI 1640 10% FBS, supplemented with 0.1 g/L penicillin and 0.1 g/L streptomycin sulphate and then incubated at 37° C., 5% CO2 and 98% humidity. For the experiments, cells were harvested from subconfluent cultures using trypsin and resuspended in fresh medium before plating.
(§5) Cells were seeded in 96 well microtiter plates, at 5×10^3 cells per well in aliquots of 195 μL medium, and they were allowed to attach to the plate surface by growing in drug free medium for 18 hours. Afterward, samples were added in aliquots of 5 μL in a ranging from 10 to 10^−8 μg/mL, dissolved in DMSO:EtOH:PBS (0.5:0.5:99). After 48 hours exposure, the antitumor effect were measured by the SRB methodology: cells were fixed by adding 50 μL of cold 50% (wt/vol) trichloroacetic acid (TCA) and incubated for 60 minutes at 4° C. Plates were washed with deionised water and dried. […] Optical densities were read on an automated spectrophotometric plate reader at a single wavelength of 490 nm.
(§6) The values for mean +/−SD of data from triplicate wells were calculated. Some parameters for cellular responses could be calculated: GI=growth inhibition, TGI=total growth inhibition (cytostatic effect) and LC=cell killing (cytotoxic effect).

HT29 = experiment: SRB antitumor screening, HT29; format: cell-based, human; conditions: Colon HT29, SRB, 48 hours exposure; for GI50: Homo sapiens, HT-29
Excerpt: as §1, §2, §3, §4, §5, §6

A549 = experiment: SRB antitumor screening, A549; format: cell-based; conditions: for CC50 / GI50: Homo sapiens; for CC50: A549, 48 h, read-out: LC50; for GI50 / TGI: NSCL A549, SRB, 48 hours exposure
Excerpt: as §1, §2, §3, §4
Cells were seeded in 96 well microtiter plates, at 5×10^3 cells per well in aliquots of 195 μL medium, and they were allowed to attach to the plate surface by growing in drug free medium for 18 hours. Afterward, samples were added in aliquots of 5 μL in a ranging from 10 to 10^−8 μg/mL, dissolved in DMSO:EtOH:PBS (0.5:0.5:99). After 48 hours exposure, the antitumor effect were measured by the SRB methodology: cells were fixed by adding 50 μL of cold 50% (wt/vol) trichloroacetic acid (TCA) and incubated for 60 minutes at 4° C. Plates were washed with deionised water and dried. One hundred μL of SRB solution (0.4% wt/vol in 1% acetic acid) was added to each microtiter well and incubated for 10 minutes at room temperature. Unbound SRB was removed by washing with 1% acetic acid. Plates were air dried and bound stain was solubilized with Tris buffer. Optical densities were read on an automated spectrophotometric plate reader at a single wavelength of 490 nm.
as §6

[1] = system: EGFR intracellular signaling (AP-1 activity); experiment: EGFR signalling inhibition assay (AP-1 luciferase reporter, HeLa-AP1); format: cell-based; conditions: Homo sapiens; HeLa-AP1 cells, EGF 25 ng/mL stimulation, 18 hours
Excerpt: In this assay, the signal transduction pathway triggered by the activated Epidermal Growth Factor (EGF) membrane receptor is indirectly quantified using an EGF-responsive, API-mediated, luciferase reporter system.
HeLa-AP1, a subclone of HeLa cell line (human cervix carcinoma, ATCC# CCL-2) stably transfected with a construct containing the luciferase reporter gene under the control of the proximal promoter of the human collagenase-3 gene (consensus AP-1 response element TGACTCA at positions −56/−50) were used. Cells were maintained in DMEM supplemented with 10% FCS and 100 units/mL penicillin and streptomycin at 37° C. and 5% CO2. HeLa-AP1 cells were pre-treated with the indicated compounds for 30 min before stimulation with EGF (25 ng/mL). After further 18 hours incubation, cell survival was estimated, for normalisation, by loading cells for 30 min with the vital fluorescent probe calcein-AM (0.5 μM). Fluorescence was quantified using a 1420 Victor^2 plate multilabel counter (Wallac). After that, cells were lysed and assayed for luciferase activity using the Bright-Glo system (Promega) and a 1450 Microbeta plate luminescence counter (Wallac-Trilux). Results were expressed as percentage of AP-1 activity inhibition as compared to control, untreated cells.

[2] = Single-administration dose range finding in mice (MTD); conditions: mouse, in vivo; CD-1 male mice, single intravenous administration, vehicle micelles
Protocol: The finality of this assay was to determine the maximum tolerated dose (MTD) in mice by a single administration of the drug.
CD-1 male mice were used for this study, weighing ca. 25 g were randomly allocated to several dosing groups. Animals received a single intravenous administration of Stigmatellin A (CAS Number: 91682-96-1, purchased from Fluka (Ref: 85865)) dosed into the lateral vein of the tail. […] Mortality was recorded daily. The Maximum Tolerated Dose (MTD) was determined based on the mortality found in each dose level, calculated when mortality vs. dose is 0%.

CD-1 male mice = experiment: Multiple-administration dose range finding in mice (MTMD); format: in vivo
Protocol: The finality of this assay was to determine the maximum tolerated multiple dose (MTMD) in mice by a multiple administration of the drug.
CD-1 male mice were used for this study, weighing ca. 25 g were randomly allocated to several dosing groups. Animals received a multiple doses by either intravenous or extravascular (intraperitoneal) route. […] Mortality was daily recorded. The MTMD was determined based on the mortality found in each dose level, calculated when mortality vs. dose is 0%.

cytochrome b-cl segment = molecular target: T1, cytochrome b-cl segment (Bos taurus, UniProt P00157+P13272); conditions: bovine heart submitochondrial particles; cited from earlier work
T1 construct: bovine heart submitochondrial particles at the site of the cytochrome b-cl segment; host or cells: bovine heart submitochondrial particles

[3] = system: photosynthetic electron transport; conditions: cited from earlier work

Structure (SMILES)	TGI (MDA-MB-231)	GI50 (MDA-MB-231)	TGI (HT29)	GI50 (HT29)	CC50 (A549)	GI50 (A549)	TGI (A549)	IC50 [1]	MTD at 4 days [2]	MTMD (CD-1 male mice; ip/5DD, liposomes at 0.035 mg/mL)	MTMD (CD-1 male mice; iv/5DD, liposomes at 0.096 mg/mL)	inhibitory potency (cytochrome b-cl segment)	inhibition of photosynthetic electron transport [3]
CCCC(C)/C=C/C=C/[C@H](OC)[C@@H](C)[C@@H](OC)[C@@H](C)CCc1oc2c(O)c(OC)cc(OC)c2c(=O)c1C (stereo partly shown) [Compound I]	3.20E−6 Molar	153 nM	5.84E−6 Molar	867 nM	4150 nM	92.3 nM	5.28E−7 Molar	226 nM					
C/C=C(C)/C=C/C=C/C(OC)C(C)C(OC)C(C)CCc1oc2c(O)c(OC)cc(OC)c2c(=O)c1C (stereo not shown) [Stigmatellin A]		389 nM		991 nM	7580 nM	602 nM	1.94E−6 Molar	9720 nM	0.44 mg/kg	0.28 mg/kg	0.14 mg/kg	identical with that of antimycin and myxothiazol	powerful inhibitor
